Test results from PMC10388311, “Innovative Strategy toward Mutant CFTR Rescue in Cystic Fibrosis: Design and Synthesis of Thiadiazole Inhibitors of the E3 Ligase RNF5” (Journal of Medicinal Chemistry, 2023).

Key:
[1] = Solubility and aggregation in PBS buffer by NMR (SPAM filter, 1H 1D and WaterLOGSY); type: physicochemical; details: PBS pH 7.5, 1 μM ZnCl2, 1 mM DTT, 10% D2O, 1% DMSO-d6
Description: Under these circumstances, it was decided to explore the solubility of all the synthetized compounds, regardless of their biological activities, to find a suitable candidate for the validation of our working hypothesis, i.e., that the compounds exert their activities by directly binding to RNF5. For that, we first calculated the predicted octanol/water partition coefficient (log Po/w) and the predicted aqueous solubility (log S) of all the analogues by QikProp (Schrödinger Release 2022-1: QikProp, Schrödinger, LLC, New York, NY, 2021, Table S1). […] To shrink down the number of compounds for solubility experiments, just the ones that had −2.0 < log Po/w < 6 and −6.5 < log S <0.5 values were selected. Among them, the PBS solubility was determined for five representative analogues: (i) 12 and 29 bearing different substituents on the benzyl group A; (ii) 34 and 40 showing the replacement of rings B and C with pyridine-4-yl moieties; (iii) 42 in which the N-phenylbenzamidine portion was replaced with a pyridine-2-yl moiety (Table 1).
All the NMR experiments were recorded at 298 K using a 5 mm CryoProbe QCI ^1H/^19F–^13C/^15N–D quadruple resonance, a shielded z-gradient coil, and an automatic sample changer SampleJet NMR system with temperature control. The solubility of the compounds were evaluated by ^1H 1D experiments and aggregation by WaterLOGSY, testing the compounds in buffer PBS pH 7,5, 1 μM ZnCl2, 1 mM DTT, 10% D2O (for the lock signal), and 1% DMSO-d6 at the theoretical concentrations of 20, 50, and 100 μM in the presence of 200 μM 4-trifluoromethyl benzoic acid (internal reference). For all samples, a 1D ^1H NMR experiment was recorded, the water suppression was obtained using the standard NOESY (nuclear Overhauser effect spectroscopy) preset Bruker pulse sequence, with 64k data points, a spectral width (sw) of 30 ppm, 64 scans, acquisition time (aq) of 1.835 s, a relaxation delay (d1) of 4 s, and a mixing time of 10 ms. […] The data were multiplied by an exponential window function with 1 Hz line broadening prior to Fourier transformation. For NMR binding experiments, the compounds were tested at 50 μM in buffer PBS pH 7.5, 1 μM ZnCl2, 1 mM DTT, 10% D2O (for the lock signal), and 1% DMSO-d6 in the absence and in the presence of 3 μM RNF5. WaterLOGSY experiments were recorded with the same parameters used in solubility assays, but with a higher number of scans (512); STD experiments were recorded with 128 scans, with two on (0.7 and 1 ppm) and one off (−50 ppm) resonance spectra, a Gaussian-shaped train pulse of 50 ms each was employed, with a total saturation time of the protein envelope of 5, 3, 2, 1.5, 1, or 0.5 s. A T1ρ filter of 2 ms was employed in STD experiments to eliminate the background signals from the protein. The STD spectrum was obtained by subtraction of the on-resonance spectrum from the off-resonance spectrum. Subtraction was performed by phase cycling to minimize artifacts arising from magnet and temperature instabilities.

[2] = molecular target: F508del-CFTR in CFBE41o– cells (Homo sapiens, UniProt Q99942); test: HS-YFP microfluorimetric assay of F508del-CFTR rescue (corrector activity); type: cell-based; details: CFBE41o– cells co-expressing F508del-CFTR and HS-YFP, 24 h treatment, Figure 5
Experimental: As a primary screen, the new thiadiazole derivatives 1–46 (Table 1) were tested for their ability to rescue the F508del-CFTR trafficking defect in CFBE41o^– cells, stably co-expressing F508del-CFTR and the HS-YFP (Figure 5). This cell line has been extensively used by our group, in combination with the microfluorimetric assay based on the HS-YFP, to identify and characterize many CFTR correctors.[39],[47] This assay relies on the hypothesis that RNF5 inhibition results in increased mutant CFTR processing and activity. Therefore, it can easily identify putative RNF5 inhibitors, but not other types of RNF5-binding compounds that could have no effect or have a negative effect on CFTR function, such as RNF5 activators (see analog-1). Thus, we opted for this assay as our primary aim was the identification of RNF5 inhibitors as a possible therapeutic strategy in CF. Twenty-four hours after seeding on 96-well plates, CFBE41o^– cells stably expressing F508del-CFTR and the HS-YFP were treated with test compounds at the desired concentration, one compound per well. Cells treated with vehicle alone (DMSO) and with corrector VX-809 (1 μM), respectively, served as negative and positive controls. At the time of the assay, cells were washed with PBS containing (in […]) 137 NaCl, 2.7 KCl, 8.1 Na2HPO4, 1.5 KH2PO4, 1 CaCl2, and 0.5 MgCl2. Cells were then incubated for 25 min with […] of PBS plus forskolin (20 μM) and VX-770 (1 μM) to maximally stimulate F508del-CFTR. Cells were then transferred to a microplate reader (FluoStar Galaxy; BMG Labtech, Offenburg, Germany) for CFTR activity determination. The plate reader was equipped with high-quality excitation (HQ500/20X: 500 ± 10 nm) and emission (HQ535/30M: 535 ± 15 nm) filters for YFP (Chroma Technology). Each assay comprised a continuous 14 s fluorescence reading and 2 s before and 12 s after injection of […] of an iodide-containing solution (PBS with Cl^– replaced by I^–; final I^– concentration […]). Data were normalized to the initial background-subtracted fluorescence. To determine the I^– influx rate, the final 11 s of the data for each well was fitted with an exponential function to extrapolate initial slope (dF/dt). Reproducibility of results was confirmed by performing three independent experiments. CFBE41o^– cells co-expressing F508del-CFTR and the HS-YFP were reverse-transfected with 50 nM (final concentration) siRNAs (Stealth, Life Technologies) in the presence of lipofectamine 2000 as a transfection agent. The following day, the medium was changed, and the cells were incubated at 37 °C for additional 24 h treated with test compounds at the desired concentration, prior to processing the cells for the YFP-based functional assay.

[3] = tested on: ATG4B-mediated basal autophagy in F508del-CFTR-expressing CFBE41o– cells; test: Labeling of autophagic vacuoles with monodansylcadaverine (MDC); type: cell-based, human; details: test compounds 5 μM 24 h; torin-1 20 nM and SAR-405 2 μM in the last 3 h
Description: To further support our hypothesis that CFTR rescue following treatment with test compounds was indeed due to RNF5 inhibition, we considered additional biological processes known to be regulated by RNF5 ligase activity. To this aim, we focused our attention on ATG4B, a known regulator of basal autophagy, whose degradation is mediated by RNF5 activity.[54]In vivo ubiquitination experiments previously confirmed that inh-2 inhibits ATG4B degradation, thus increasing the basal level of autophagy.[40] […] We thus evaluated the effect of inh-2 analogues on induction of the autophagy pathway. To this aim, we monitored the formation of autophagic vacuoles in F508del-CFTR-expressing CFBE41o^– cells (Figure 8) by using the autolysosome marker monodansylcadaverine (MDC). MDC accumulates inside autophagosomes. After fusion of autophagosomes with lysosomes, MDC fluorescence increases due to the acidic environment.[55] Therefore, F508del-CFTR-expressing CFBE41o^– cells were treated for 24 h with test compounds (5 μM), VX-809 (1 μM), or DMSO alone (vehicle). In the last 3 h of incubation, we added torin-1 (20 nM), a known autophagy inducer, and SAR-405 (2 μM), a potent inhibitor of the autophagic pathway. The cells were then loaded with MDC and evaluated by high-content confocal imaging to detect signal spots (corresponding to autophagic vacuoles) in each cell.
CFBE41o^– cells stably expressing F508del-CFTR and the HS-YFP were plated (50,000 cells/well) on good-quality clear-bottom 96-well black microplates suitable for high-content imaging. After 24 h, cells were treated with test compounds or DMSO (as the negative control). […] After 24 h, cells were incubated with 50 μM MDC (Sigma-Aldrich) in PBS at 37 °C for 10 min.[62] After incubation, cells were washed three times with PBS and immediately analyzed. High-content imaging and data analysis were performed using the Opera Phenix (PerkinElmer) high-content screening system. Wells were imaged in confocal mode using a 40× water-immersion objective. The MDC signal was laser-excited at 405 nm, and the emission wavelengths were collected between 435 and 550 nm. Data analysis of MDC spot number was performed using the Harmony software (ver 4.5) of the Opera Phenix high-content system. Data are expressed as means ± SEM, n = 3 independent experiments. Statistical significance was tested by parametric ANOVA followed by the Dunnet multiple comparisons test (all groups against the control group).

Chain of F508del-CFTR in CFBE41o– cells (Q99942 2-180): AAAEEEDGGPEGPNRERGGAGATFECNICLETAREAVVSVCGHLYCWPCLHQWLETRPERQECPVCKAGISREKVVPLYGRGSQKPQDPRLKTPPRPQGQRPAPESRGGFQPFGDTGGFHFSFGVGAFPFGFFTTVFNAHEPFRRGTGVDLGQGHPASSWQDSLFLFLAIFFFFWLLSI
Chain of F508del-CFTR in CFBE41o– cells (P13569 with tags, fused parts or gaps DEL508-508 partner): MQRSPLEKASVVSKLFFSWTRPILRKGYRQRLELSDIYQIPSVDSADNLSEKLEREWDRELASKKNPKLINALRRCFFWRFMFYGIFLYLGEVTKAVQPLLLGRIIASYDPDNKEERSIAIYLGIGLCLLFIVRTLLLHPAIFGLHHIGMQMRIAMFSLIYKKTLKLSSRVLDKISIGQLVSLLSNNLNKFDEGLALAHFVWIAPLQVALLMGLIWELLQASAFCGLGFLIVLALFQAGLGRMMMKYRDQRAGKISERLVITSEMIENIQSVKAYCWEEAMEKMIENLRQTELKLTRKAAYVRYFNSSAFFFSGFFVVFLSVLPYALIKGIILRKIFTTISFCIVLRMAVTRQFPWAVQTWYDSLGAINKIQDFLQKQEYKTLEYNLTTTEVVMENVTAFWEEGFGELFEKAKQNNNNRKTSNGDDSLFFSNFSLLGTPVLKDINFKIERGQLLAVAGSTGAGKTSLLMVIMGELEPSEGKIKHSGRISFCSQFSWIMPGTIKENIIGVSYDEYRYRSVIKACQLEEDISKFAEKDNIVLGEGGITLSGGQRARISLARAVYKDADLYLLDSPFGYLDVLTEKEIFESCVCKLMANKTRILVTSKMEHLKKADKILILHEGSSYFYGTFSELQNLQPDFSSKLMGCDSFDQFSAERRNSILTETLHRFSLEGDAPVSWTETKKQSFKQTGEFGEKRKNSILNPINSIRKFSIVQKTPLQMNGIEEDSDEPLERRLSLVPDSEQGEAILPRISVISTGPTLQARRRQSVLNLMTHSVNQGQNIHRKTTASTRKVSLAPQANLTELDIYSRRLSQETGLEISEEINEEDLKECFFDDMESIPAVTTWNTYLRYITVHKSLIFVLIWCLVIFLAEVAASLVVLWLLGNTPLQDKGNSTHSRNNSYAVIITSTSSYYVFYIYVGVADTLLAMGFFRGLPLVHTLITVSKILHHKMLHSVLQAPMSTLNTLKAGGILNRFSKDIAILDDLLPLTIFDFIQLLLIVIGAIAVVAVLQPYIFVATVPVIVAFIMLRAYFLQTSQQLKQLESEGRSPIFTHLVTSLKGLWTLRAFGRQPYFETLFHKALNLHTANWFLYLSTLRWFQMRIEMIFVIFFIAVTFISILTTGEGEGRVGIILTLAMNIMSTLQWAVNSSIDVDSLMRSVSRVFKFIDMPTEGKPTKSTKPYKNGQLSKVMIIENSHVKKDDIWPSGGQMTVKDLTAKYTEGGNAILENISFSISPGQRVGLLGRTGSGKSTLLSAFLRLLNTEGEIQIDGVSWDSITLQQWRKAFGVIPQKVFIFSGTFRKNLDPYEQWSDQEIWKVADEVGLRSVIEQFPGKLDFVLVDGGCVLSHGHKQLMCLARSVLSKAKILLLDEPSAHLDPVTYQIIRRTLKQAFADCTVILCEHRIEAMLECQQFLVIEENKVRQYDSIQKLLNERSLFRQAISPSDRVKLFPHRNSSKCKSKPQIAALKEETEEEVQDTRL

Row | Compound | F508del-CFTR corrector activity compared with inh-2 (CFTR activity, primary screen) [2] | number of autophagic vacuoles (MDC signal spots) [3] | other results
1 | Cc1ns/c(=N\C(=N\c2ccccc2)c2ccccc2)n1Cc1ccccc1N [Compound 29, (E)-N-((Z)-4-(2-Aminobenzyl)-3-methyl-1,2,4-thiadiazol-5(4H)-ylidene)-N′-phenylbenzimidamide] | comparable activity to the unsubstituted original hit inh-2 | – | solubility ([1]; PBS buffer, aqueous buffer, kinetic from dmso stock, theoretical concentration 20 μM, read-out: solubility in PBS buffer by NMR, 20 μM): < 5 µM; aggregation in PBS buffer by NMR ([1]; WaterLOGSY): no; solubility at 50 µM ([1]; theoretical concentration 50 μM): <5 µM; solubility at 100 µM ([1]; theoretical concentration 100 μM): <5 µM
2 | CCC(=O)N1CCN(c2ccc(-n3c(=O)ccc4cnc5ccc(-c6cnc7ccccc7c6)cc5c43)cc2C(F)(F)F)CC1 [torin-1, reference compound] | – | significantly increased | –
3 | Cc1ns/c(=N\C(=N\c2ccccc2)c2ccccc2)n1Cc1ccc(Br)cc1 [Compound 11, (E)-N-((Z)-4-(4-Bromobenzyl)-3-methyl-1,2,4-thiadiazol-5(4H)-ylidene)-N′-phenylbenzimidamide] | maintained the activity unaltered | significantly increased | –
4 | Cc1ns/c(=N\C(=N\c2ccccc2)c2ccccc2)n1Cc1ccc(F)cc1 [Compound 9, (E)-N-((Z)-4-(4-Fluorobenzyl)-3-methyl-1,2,4-thiadiazol-5(4H)-ylidene)-N′-phenylbenzimidamide] | maintained the activity unaltered | significantly decreased | –
5 | Cc1ccc(Cn2c(C)ns/c2=N\C(=N\c2ccccc2)c2ccccc2)cc1 [Compound 6, (E)-N-((Z)-3-Methyl-4-(4-methylbenzyl)-1,2,4-thiadiazol-5(4H)-ylidene)-N′-phenylbenzimidamide] | maintained the activity unaltered | – | –
6 | C[C@@H]1COCCN1c1cc(=O)n2c(n1)N(Cc1cncc(Cl)c1)[C@H](C(F)(F)F)CC2 [SAR-405, reference compound] | – | significantly decreased | –
7 | Cc1ns/c(=N\C(=N\c2ccccc2)c2ccccc2)n1Cc1ccc(N)cc1 [Compound 13, (E)-N-((Z)-4-(4-Aminobenzyl)-3-methyl-1,2,4-thiadiazol-5(4H)-ylidene)-N′-phenylbenzimidamide] | reduced potency | – | –

Continued, in another order:

Row | F508del-CFTR corrector activity compared with inh-2 (CFTR activity, primary screen) [2] | Compound | number of autophagic vacuoles (MDC signal spots) [3] | other results
8 | did not affect the activity | CNc1cccc(Cn2c(C)ns/c2=N\C(=N\c2ccccc2)c2ccccc2)c1 [Compound 21, (E)-N-((Z)-3-Methyl-4-(3-(methylamino)benzyl)-1,2,4-thiadiazol-5(4H)-ylidene)-N′-phenylbenzimidamide] | significantly increased | –
9 | did not affect the activity | Cc1ns/c(=N\C(=N\c2ccccc2)c2ccccc2)n1Cc1cccc(N(C)C)c1 [Compound 22, (E)-N-((Z)-4-(3-(Dimethylamino)benzyl)-3-methyl-1,2,4-thiadiazol-5(4H)-ylidene)-N′-phenylbenzimidamide] | – | –
10 | inactive compounds | COCCc1ccnc(/N=c2\snc(C)n2Cc2ccccc2)c1 [Compound 43, (Z)-4-Benzyl-N-(4-(2-methoxyethyl)pyridin-2-yl)-3-methyl-1,2,4-thiadiazol-5(4H)-imine] | – | –
11 | did not affect the activity | Cc1cccc(Cn2c(C)ns/c2=N\C(=N\c2ccccc2)c2ccccc2)c1 [Compound 14, (E)-N-((Z)-3-Methyl-4-(3-methylbenzyl)-1,2,4-thiadiazol-5(4H)-ylidene)-N′-phenylbenzimidamide] | – | –
12 | inactive analogs | Cc1ns/c(=N\C(=N\c2cccnc2)c2ccccc2)n1Cc1ccccc1 [Compound 41, (E)-N-((Z)-4-Benzyl-3-methyl-1,2,4-thiadiazol-5(4H)-ylidene)-N′-(pyridin-3-yl)benzimidamide] | – | –
